Data published in US8703917B2, “Epidermal growth factor receptor variants and pharmaceutical compositions thereof” (Shanghai Cancer Institute, priority 2010, dated 2014).

Key:
U87MG EGFRwt = assay: Cell growth suppression assay (CCK-8) using small molecular inhibitors against EGFR; assay type: cell-based, human; settings: U87MG EGFRwt cells, 72 h with inhibitor, CCK-8 OD450
Procedure: (§1) Methods: cells in the log-phase growth were plated in 96-well plates with 3000 cells/well. […] The medium were replaced with fresh medium containing 10% CCK-8 reagents and incubated for another 2 h. The OD450 value was then measured.

U87MG EGFRvA = assay: as above; assay type: cell-based, human
Procedure: as §1

IC50 (U87MG EGFRwt) [nM]	IC50 (U87MG EGFRvA; U87MG EGFRvA cells, 72 h with inhibitor, CCK-8 OD450) [nM]	IC50 ratio (EGFRvA/EGFRwt) (U87MG EGFRvA; U87MG EGFRvA versus U87MG EGFRwt)	Structure (SMILES)	sensitivity of cell line stably expressing EGFRvA compared with cell line stably expressing EGFR (U87MG EGFRvA; FIG. 7)
890	4060	4.56	COc1cc2ncnc(Nc3cccc(Cl)c3)c2cc1OC [AG1478]	–
–	–	–	C#Cc1cccc(Nc2ncnc3cc(OCCOC)c(OCCOC)cc23)c1 [Erlotinib]	lower sensitivity
